Assay results reported in article PMC8421423, “Cellular model system to dissect the isoform-selectivity of Akt inhibitors” (Nature Communications, 2021).
Where “and” joins values, the source holds several entries; their conditions need not be identical. Equal values may be shown once. Read-outs that look alike come from different tables or passages of the source.

Experiments:
Akt1 = Akt1 (Homo sapiens, UniProt P31749); test: PhosphoSens continuous fluorometric kinetic enzyme assay
Procedure: (§1) By addition of either 8 nM Akt1, 2 nM Akt2, or 5 nM Akt3 (final concentrations) the reactions were initiated. […] Afterwards the kobs-values were plotted versus the inhibitor concentrations [I] and then fit to the following hyperbolic Eq.

pAkt1 = test: Western blot analysis, PANC1 cells; assay type: cell-based, human; conditions: PANC1, 24-h treatment
Akt2 [1] = biological target: T1, Akt2 (Homo sapiens, UniProt P31751); test: PhosphoSens continuous fluorometric kinetic enzyme assay
Target sequence in this assay (P31751 whole entry): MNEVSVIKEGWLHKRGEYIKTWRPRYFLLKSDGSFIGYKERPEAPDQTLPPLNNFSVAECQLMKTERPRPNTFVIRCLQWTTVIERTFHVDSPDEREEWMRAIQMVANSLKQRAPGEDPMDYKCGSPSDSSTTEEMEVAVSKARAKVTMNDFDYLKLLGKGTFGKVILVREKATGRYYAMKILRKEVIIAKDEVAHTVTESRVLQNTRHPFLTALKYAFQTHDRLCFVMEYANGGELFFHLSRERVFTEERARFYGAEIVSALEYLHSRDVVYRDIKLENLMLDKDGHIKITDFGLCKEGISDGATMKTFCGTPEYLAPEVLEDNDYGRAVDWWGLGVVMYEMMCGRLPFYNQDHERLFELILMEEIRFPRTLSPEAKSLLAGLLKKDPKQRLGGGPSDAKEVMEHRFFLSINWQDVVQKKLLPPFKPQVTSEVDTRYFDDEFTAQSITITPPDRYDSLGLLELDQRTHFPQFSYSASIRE
Procedure: as §1

Akt3 [2] = biological target: Akt3 (Homo sapiens, UniProt Q9Y243); test: as above
Procedure: as §1

Akt2 [3] = biological target: T1, Akt2; test: ESI-MS/MS of tryptic digest (modified cysteine residues); assay type: binding; set-up: AKT2(2–447); His6 with TEV protease recognition site (N, cleaved yes); made in house; host or cells: Spodoptera frugiperda (Sf9); conditions: 5-fold molar excess of inhibitor
Procedure: ESI-MS/MS samples were prepared as stated above followed by steps of reduction, alkylation, and tryptic digest. The digested samples were stage tip-purified using C18 tips and according to a protocol described elsewhere. Subsequently, samples were thawed, dissolved in 20 μL of 0.1% TFA in water, sonicated at room temperature for 15 min, and centrifuged at 15,000×g for 1 min shortly before analysis. In all, 3 μL of sample were loaded onto a pre-column cartridge and desalted for 5 min using 0.1% TFA in water as eluent at a flow rate of 30 μL/min. The samples were back-flushed from the pre-column to the nano-HPLC column during the whole analysis. Elution was performed using a gradient starting at 5% B with a final composition of 30% B after 35 min (flow rate 300 nL/min) using 0.1% formic acid in water as eluent A and 0.1% formic acid in acetonitrile as eluent B and a column temperature of 40 °C. […] During the complete gradient cycle, a typical TOP10 shot-gun proteomics method for the MS and MS/MS analysis was used. For full scan MS experiments a mass range of m/z 300–1650 was scanned with a resolution of 70000. MS/MS experiments were followed by up to 10 high energy collision dissociation (HCD) MS/MS scans with a resolution of 17,500 of the most intense at least doubly charged ions. Data evaluation was performed using MaxQuant[50]. […]
Target sequence in this assay (P31751 2-447): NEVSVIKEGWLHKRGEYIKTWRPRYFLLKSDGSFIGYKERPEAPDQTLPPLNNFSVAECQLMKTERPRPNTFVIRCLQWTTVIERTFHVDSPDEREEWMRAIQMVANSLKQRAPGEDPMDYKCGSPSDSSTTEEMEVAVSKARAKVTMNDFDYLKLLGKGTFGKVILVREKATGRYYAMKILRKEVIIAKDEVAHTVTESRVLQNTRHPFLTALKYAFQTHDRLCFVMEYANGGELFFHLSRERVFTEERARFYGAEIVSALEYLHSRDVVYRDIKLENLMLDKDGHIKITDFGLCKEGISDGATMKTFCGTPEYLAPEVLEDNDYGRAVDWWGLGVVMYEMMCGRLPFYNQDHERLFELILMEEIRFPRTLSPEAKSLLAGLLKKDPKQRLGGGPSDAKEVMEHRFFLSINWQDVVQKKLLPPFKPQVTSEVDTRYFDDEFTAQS

Akt3 [4] = biological target: T2, Akt3 (Homo sapiens, UniProt Q9Y243, E113A/E114A/E115A); test: as above; assay type: binding; conditions: 5-fold molar excess of inhibitor
T2 construct: AKT3(2–443, E114/115/116A); His6 with TEV protease recognition site (N, cleaved yes); made in house; host or cells: Spodoptera frugiperda (Sf9)
Procedure: ESI-MS/MS samples were prepared as stated above followed by steps of reduction, alkylation, and tryptic digest. The digested samples were stage tip-purified using C18 tips and according to a protocol described elsewhere. Subsequently, samples were thawed, dissolved in 20 μL of 0.1% TFA in water, sonicated at room temperature for 15 min, and centrifuged at 15,000×g for 1 min shortly before analysis. In all, 3 μL of sample were loaded onto a pre-column cartridge and desalted for 5 min using 0.1% TFA in water as eluent at a flow rate of 30 μL/min. The samples were back-flushed from the pre-column to the nano-HPLC column during the whole analysis. Elution was performed using a gradient starting at 5% B with a final composition of 30% B after 35 min (flow rate 300 nL/min) using 0.1% formic acid in water as eluent A and 0.1% formic acid in acetonitrile as eluent B and a column temperature of 40 °C. […] During the complete gradient cycle, a typical TOP10 shot-gun proteomics method for the MS and MS/MS analysis was used. For full scan MS experiments a mass range of m/z 300–1650 was scanned with a resolution of 70000. MS/MS experiments were followed by up to 10 high energy collision dissociation (HCD) MS/MS scans with a resolution of 17,500 of the most intense at least doubly charged ions. Data evaluation was performed using MaxQuant[50]. Spectra were searched against the specific Akt sequence and a contamination database using a false discovery rate of 1% on peptide and protein level using a decoy database for determination of the false discovery rate. For database search oxidation of methionine and N-terminal acetylation of proteins, carbamidomethylation of cysteines, and artificial modification of cysteines were defined as variable modifications.

[5] = Ki Akt2, Mean, mean of replicates
[6] = Ki Akt2, individual determinations, single replicates
[7] = read-out: kinact Akt2, individual determinations, single replicates
[8] = Ki Akt3, Mean, mean of replicates
[9] = Ki Akt3, individual determinations, single replicates
[10] = read-out: kinact /Ki Akt3, individual determinations, single replicates
[11] = read-out: kinact Akt3, Mean, mean of replicates
[12] = read-out: kinact Akt3, individual determinations, single replicates

Chain of Akt1 (P31749 whole entry): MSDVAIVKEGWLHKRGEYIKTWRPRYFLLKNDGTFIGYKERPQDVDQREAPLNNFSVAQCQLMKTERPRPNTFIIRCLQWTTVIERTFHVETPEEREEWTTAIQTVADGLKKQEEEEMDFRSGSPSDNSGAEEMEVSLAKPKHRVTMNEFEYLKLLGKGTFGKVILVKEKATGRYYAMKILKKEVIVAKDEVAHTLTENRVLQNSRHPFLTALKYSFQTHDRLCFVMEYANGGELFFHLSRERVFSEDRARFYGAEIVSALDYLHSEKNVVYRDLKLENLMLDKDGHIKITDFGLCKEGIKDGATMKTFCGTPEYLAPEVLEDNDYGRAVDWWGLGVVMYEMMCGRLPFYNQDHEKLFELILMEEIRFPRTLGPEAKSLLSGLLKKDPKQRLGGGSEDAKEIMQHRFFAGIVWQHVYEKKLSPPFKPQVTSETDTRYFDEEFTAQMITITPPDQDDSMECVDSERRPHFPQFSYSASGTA
Chain of Akt3 (Homo sapiens, UniProt Q9Y243) (Q9Y243 whole entry): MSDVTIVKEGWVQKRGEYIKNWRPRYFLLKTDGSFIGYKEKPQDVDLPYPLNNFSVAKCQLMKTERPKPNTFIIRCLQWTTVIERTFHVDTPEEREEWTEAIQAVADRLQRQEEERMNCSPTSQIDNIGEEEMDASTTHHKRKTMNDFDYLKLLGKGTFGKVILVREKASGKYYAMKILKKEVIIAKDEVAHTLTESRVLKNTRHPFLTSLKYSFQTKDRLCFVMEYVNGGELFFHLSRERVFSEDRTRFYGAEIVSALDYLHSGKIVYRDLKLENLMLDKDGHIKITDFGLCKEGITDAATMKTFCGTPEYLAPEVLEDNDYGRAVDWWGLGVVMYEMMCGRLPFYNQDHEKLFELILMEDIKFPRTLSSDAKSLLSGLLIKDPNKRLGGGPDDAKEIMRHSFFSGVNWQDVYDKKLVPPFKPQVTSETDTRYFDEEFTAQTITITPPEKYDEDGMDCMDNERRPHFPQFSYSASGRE
T2 sequence (Q9Y243 2-443 E113A/E114A/E115A): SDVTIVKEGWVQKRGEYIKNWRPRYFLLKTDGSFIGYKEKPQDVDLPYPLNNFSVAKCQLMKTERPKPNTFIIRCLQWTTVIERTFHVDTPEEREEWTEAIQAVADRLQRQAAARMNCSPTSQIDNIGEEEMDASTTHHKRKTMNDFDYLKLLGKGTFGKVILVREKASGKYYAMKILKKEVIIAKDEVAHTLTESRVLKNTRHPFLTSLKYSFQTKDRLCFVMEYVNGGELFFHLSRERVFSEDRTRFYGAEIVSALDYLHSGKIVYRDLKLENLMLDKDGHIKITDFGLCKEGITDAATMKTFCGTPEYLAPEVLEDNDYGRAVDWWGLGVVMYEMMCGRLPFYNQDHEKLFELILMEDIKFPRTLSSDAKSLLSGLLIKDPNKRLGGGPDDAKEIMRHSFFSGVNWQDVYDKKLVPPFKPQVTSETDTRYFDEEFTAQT

C=CC(=O)Nc1ccc2[nH]c(=O)n(C3CCN(Cc4ccc(-c5ncccc5-c5ccccc5)cc4)CC3)c2c1 [compound 1]
Ki (Akt1; Ki Akt1): 6 ± 2 nM | Ki (Akt1; Ki Akt1, Mean, mean of replicates): 5.77 nM | Ki (Akt1; Ki Akt1, individual determinations, single replicates): 3.95 nM and 5.28 nM and 8.08 nM | kinact/KI (Akt1; read-out: kinact /Ki Akt1): 38000 ± 10000 M⁻¹ s⁻¹ | kinact/KI (Akt1; read-out: kinact /Ki Akt1, Mean, mean of replicates): 36000 M⁻¹ s⁻¹ | kinact/KI (Akt1; read-out: kinact /Ki Akt1, individual determinations, single replicates): 36000 M⁻¹ s⁻¹ | kinact (Akt1; read-out: kinact Akt1): 0.0002 s⁻¹ | kinact (Akt1; read-out: kinact Akt1, individual determinations, single replicates): 0.00015 s⁻¹ | kinact Akt1, individual determinations (Akt1; single replicates): 0.015 min⁻¹ and 0.011 min⁻¹ | pAkt1 level (immunoblot) (pAkt1): downregulation of pAkt1 and pAkt2

C=CC(=O)Nc1ccc2[nH]c(=O)n(C3CCN(Cc4ccc(-c5ncc(Cc6cn[nH]c6)cc5-c5ccccc5)cc4)CC3)c2c1 [compound 14]
Ki (Akt2 [1]; Ki Akt2): 11 ± 2 nM | Ki (Akt2 [1]; [5]): 10.4 nM | Ki (Akt2 [1]; [6]): 13.2 nM and 8 nM and 9.9 nM | kinact/KI (Akt2 [1]; read-out: kinact /Ki Akt2): 25000 ± 6000 M⁻¹ s⁻¹ | kinact/KI (Akt2 [1]; read-out: kinact /Ki Akt2, individual determinations, single replicates): 15000 M⁻¹ s⁻¹ | kinact (Akt2 [1]; read-out: kinact Akt2): 0.000267 s⁻¹ | kinact (Akt2 [1]; read-out: kinact Akt2, Mean, mean of replicates): 0.00025 s⁻¹ | kinact (Akt2 [1]; [7]): 0.0002 s⁻¹ | kinact Akt2, individual determinations (Akt2 [1]; single replicates): 0.015 min⁻¹ and 0.017 min⁻¹ | Ki (Akt3 [2]; Ki Akt3): 29 ± 4 nM | Ki (Akt3 [2]; [8]): 29.3 nM | Ki (Akt3 [2]; [9]): 35.5 nM and 27.7 nM and 30 nM and 24.2 nM | kinact/KI (Akt3 [2]; read-out: kinact /Ki Akt3): 13000 ± 2000 M⁻¹ s⁻¹ | kinact/KI (Akt3 [2]; [10]): 11000 M⁻¹ s⁻¹ | kinact (Akt3 [2]; read-out: kinact Akt3): 0.000367 s⁻¹ | kinact (Akt3 [2]; [11]): 0.000367 s⁻¹ | kinact (Akt3 [2]; [12]): 0.0004 s⁻¹ | kinact Akt3, individual determinations (Akt3 [2]; single replicates): 0.023 min⁻¹ and 0.019 min⁻¹ and 0.022 min⁻¹ | modified cysteine residues in Akt2 (MS/MS) (Akt2 [3]): Cys297, Cys311, and Cys124 | pAkt1 level (immunoblot) (pAkt1): pAkt1 signal remained stable

C=CC(=O)Nc1ccc2[nH]c(=O)n(C3CCN(Cc4ccc(-c5ncc(Cc6ccc(N)nc6)cc5-c5ccccc5)cc4)CC3)c2c1 [compound 20]
Ki (Akt2 [1]; Ki Akt2): 95 ± 14 nM | Ki (Akt2 [1]; [5]): 94.4 nM | Ki (Akt2 [1]; [6]): 98.6 nM and 101 nM and 71.2 nM and 107 nM | kinact/KI (Akt2 [1]; read-out: kinact /Ki Akt2): 4000 ± 1000 M⁻¹ s⁻¹ | kinact/KI (Akt2 [1]; read-out: kinact /Ki Akt2, Mean, mean of replicates): 4000 M⁻¹ s⁻¹ | kinact (Akt2 [1]; read-out: kinact Akt2): 0.00035 s⁻¹ | kinact (Akt2 [1]; [7]): 0.000383 s⁻¹ | kinact Akt2, individual determinations (Akt2 [1]; single replicates): 0.025 min⁻¹ and 0.022 min⁻¹ and 0.015 min⁻¹ | kobs (mean) (Akt3 [2]; Akt3 + 20, concentration 2.5 nM): 5.68e-05 s⁻¹ | kobs (mean) (Akt3 [2]; Akt3 + 20, concentration 4.9 nM): 4.71e-05 s⁻¹ | kobs (mean) (Akt3 [2]; Akt3 + 20, concentration 9.9 nM): 8.01e-05 s⁻¹ | kobs (mean) (Akt3 [2]; Akt3 + 20, concentration 39.5 nM): 0.00023 s⁻¹ | kobs (mean) (Akt3 [2]; Akt3 + 20, concentration 123.8 nM): 0.000418 s⁻¹ | kobs (mean) (Akt3 [2]; Akt3 + 20, concentration 247.5 nM): 0.000431 s⁻¹ | kobs (mean) (Akt3 [2]; Akt3 + 20, concentration 371.3 nM): 0.000653 s⁻¹ | Ki (Akt3 [2]; Ki Akt3): 53 ± 4 nM | Ki (Akt3 [2]; [8]): 70.1 nM | Ki (Akt3 [2]; [9]): 71.5 nM and 73.4 nM and 65.4 nM | kinact/KI (Akt3 [2]; read-out: kinact /Ki Akt3): 10000 ± 3000 M⁻¹ s⁻¹ | kinact/KI (Akt3 [2]; read-out: kinact /Ki Akt3, Mean, mean of replicates): 11000 M⁻¹ s⁻¹ | kinact/KI (Akt3 [2]; [10]): 8000 M⁻¹ s⁻¹ | kinact (Akt3 [2]; read-out: kinact Akt3): 0.000733 s⁻¹ | kinact (Akt3 [2]; [11]): 0.000767 s⁻¹ | kinact (Akt3 [2]; [12]): 0.00055 s⁻¹ | kinact Akt3, individual determinations (Akt3 [2]; single replicates): 0.061 min⁻¹ | modified cysteine residues in Akt3 (MS/MS) (Akt3 [4]): Cys293
